Some results are limits rather than exact numbers.

One assay concerns the target T1, human MR (Homo sapiens, UniProt P08235).
T1 construct: The full length human MR gene is cloned from a human kidney or human brain cDNA library; His tag from the pAcHLT vector (own knowledge); made in house; host or cells: Sf9 insect cells (baculovirus, pAcHLT transfer vector)
T1 sequence (P08235 1-984): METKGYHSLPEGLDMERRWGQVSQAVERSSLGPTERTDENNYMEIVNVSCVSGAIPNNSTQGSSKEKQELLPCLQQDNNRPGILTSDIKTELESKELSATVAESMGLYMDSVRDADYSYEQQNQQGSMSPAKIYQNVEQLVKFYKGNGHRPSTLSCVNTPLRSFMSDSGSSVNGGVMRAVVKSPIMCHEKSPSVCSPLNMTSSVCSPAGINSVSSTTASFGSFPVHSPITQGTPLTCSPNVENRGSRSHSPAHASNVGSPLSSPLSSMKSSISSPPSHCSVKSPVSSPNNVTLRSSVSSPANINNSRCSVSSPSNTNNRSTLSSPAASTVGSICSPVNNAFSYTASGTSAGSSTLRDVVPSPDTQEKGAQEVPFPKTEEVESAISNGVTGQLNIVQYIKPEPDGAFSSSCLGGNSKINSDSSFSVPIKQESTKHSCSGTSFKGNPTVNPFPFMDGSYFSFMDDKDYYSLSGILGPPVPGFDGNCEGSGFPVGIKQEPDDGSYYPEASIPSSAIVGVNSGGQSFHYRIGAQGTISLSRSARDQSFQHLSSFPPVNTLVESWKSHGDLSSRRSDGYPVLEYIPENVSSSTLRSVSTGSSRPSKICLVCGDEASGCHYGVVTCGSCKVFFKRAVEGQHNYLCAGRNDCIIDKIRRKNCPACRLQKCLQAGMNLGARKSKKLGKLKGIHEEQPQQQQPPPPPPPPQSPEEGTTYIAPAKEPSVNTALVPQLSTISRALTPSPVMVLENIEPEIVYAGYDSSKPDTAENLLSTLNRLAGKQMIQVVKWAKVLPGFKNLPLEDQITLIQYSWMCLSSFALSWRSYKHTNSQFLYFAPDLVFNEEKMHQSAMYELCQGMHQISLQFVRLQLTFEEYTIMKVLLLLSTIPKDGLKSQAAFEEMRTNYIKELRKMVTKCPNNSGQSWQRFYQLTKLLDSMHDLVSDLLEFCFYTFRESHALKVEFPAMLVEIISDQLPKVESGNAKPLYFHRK
Put plainly: Mineralocorticoid Receptor Binding Assay ([3H]-aldosterone). Particulars: [3H]-aldosterone binding, human MR expressed in Sf9 cells; read-out: MR Ki. The procedure, abridged: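 Lysate supernatant of Sf9 cells expressing full-length human MR (20-25 μg protein) was incubated with 0.5 nM [3H]-aldosterone and test compound in molybdate/Tris/phosphate/glycerol buffer, pH 7.5, ~16 h at 4 °C. Bound ligand was filtered and counted by scintillation; IC50 is the concentration halving [3H]-aldosterone binding.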

The target of another assay is T2, glucocorticoid receptor (Homo sapiens, UniProt P04150).
T2 construct: containing 50-200 ug of A549 cell extract and 1.86 nM [^3H]-dexamethasone; host or cells: A549 human lung epithelial cells (sonicated cell extract)
T2 sequence (P04150 1-777): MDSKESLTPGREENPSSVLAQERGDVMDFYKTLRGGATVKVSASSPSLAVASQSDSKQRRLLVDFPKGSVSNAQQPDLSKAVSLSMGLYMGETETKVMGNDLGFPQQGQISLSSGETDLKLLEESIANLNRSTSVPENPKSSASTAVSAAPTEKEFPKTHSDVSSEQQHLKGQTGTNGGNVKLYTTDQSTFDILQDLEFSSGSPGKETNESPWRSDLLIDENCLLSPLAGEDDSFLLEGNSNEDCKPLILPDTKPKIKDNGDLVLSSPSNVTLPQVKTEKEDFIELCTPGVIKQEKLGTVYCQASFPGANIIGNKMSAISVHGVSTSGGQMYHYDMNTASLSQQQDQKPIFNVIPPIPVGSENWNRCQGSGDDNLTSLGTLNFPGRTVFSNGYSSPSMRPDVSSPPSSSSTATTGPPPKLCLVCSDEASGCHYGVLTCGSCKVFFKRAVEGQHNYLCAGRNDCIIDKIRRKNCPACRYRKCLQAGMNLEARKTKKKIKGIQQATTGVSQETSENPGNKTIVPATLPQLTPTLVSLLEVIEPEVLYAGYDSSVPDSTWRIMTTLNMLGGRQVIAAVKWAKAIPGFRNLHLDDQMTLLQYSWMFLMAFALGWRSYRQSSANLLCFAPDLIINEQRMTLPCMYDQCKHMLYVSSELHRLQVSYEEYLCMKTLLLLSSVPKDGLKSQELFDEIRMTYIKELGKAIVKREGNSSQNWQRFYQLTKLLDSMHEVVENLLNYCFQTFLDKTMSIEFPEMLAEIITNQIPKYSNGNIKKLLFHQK
Put plainly: Glucocorticoid Receptor Binding Assay ([3H]-dexamethasone, A549 cell extract). To be noted: [3H]-dexamethasone binding, read-out: GR Ki. The procedure, abridged: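 A549 cell extract (50–200 ug) incubated with 1.86 nM [3H]-dexamethasone and test compound for 16 h at 4 °C in Tris-HCl pH 7.2 buffer with glycerol and molybdate. Unbound radioligand removed by dextran-coated charcoal, then supernatant bound counts measured by scintillation.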

As to `Cc1ccc2c(c1)OCc1ccccc1/C2=C\c1cccc(NS(C)(=O)=O)c1` [Example 676], the Ki on human MR and at glucocorticoid receptor was < 500 nM throughout.
For the molecule `Cc1ccc2c(c1)/C(=C\c1cccc(NS(C)(=O)=O)c1)c1ccccc1CO2` [Example 677], the Ki at human MR and at glucocorticoid receptor was < 500 nM each time.
In the case of `COc1ccc2c(c1)/C(=C/c1cccc(NS(C)(=O)=O)c1)c1ccccc1CO2` [Example 679], the Ki at human MR and at glucocorticoid receptor was < 500 nM throughout.
With `CS(=O)(=O)Nc1cccc(/C=C2/c3ccccc3COc3ccc(Cl)cc32)c1` [Example 680], the Ki (usually a measure of affinity in units of concentration, obtained from inhibition or displacement) on human MR was < 500 nM; at glucocorticoid receptor, < 1000 nM.
In the case of `CS(=O)(=O)Nc1cccc(/C=C2\c3ccccc3COc3ccc(Cl)cc32)c1` [Example 681], the Ki on human MR and at glucocorticoid receptor was < 500 nM each time.
In the case of `CS(=O)(=O)Nc1cccc(/C=C2/c3ccccc3COc3cc(C(F)(F)F)ccc32)c1` [Example 682], the Ki at human MR and on glucocorticoid receptor was < 500 nM throughout.
Take `CS(=O)(=O)Nc1cccc(/C=C2\c3ccccc3COc3cc(C(F)(F)F)ccc32)c1` [Example 683]: the inhibition constant Ki at human MR and on glucocorticoid receptor was < 500 nM in each case.
Consider `COc1ccc2c(c1OC)CSc1ccccc1/C2=C/c1cccc(NS(C)(=O)=O)c1` [Example 684], for which the Ki at human MR and at glucocorticoid receptor was < 500 nM in each case.
On to `COc1ccc2c(c1OC)CSc1ccccc1/C2=C\c1cccc(NS(C)(=O)=O)c1` [Example 685], for which the Ki at human MR and on glucocorticoid receptor was < 500 nM in each case.
`COc1cc2c(c(OC)c1)/C(=C\c1cccc(NS(C)(=O)=O)c1)c1ccccc1SC2` [Example 687]: the Ki at human MR and at glucocorticoid receptor was < 500 nM throughout.
For the molecule `COc1ccc(C=C2c3ccccc3CSc3ccccc32)cn1` [Example 688], the Ki on human MR and on glucocorticoid receptor was < 500 nM in each case.
As to `CC(=O)Nc1cccc(/C=C2\c3ccccc3CSc3ccccc32)c1` [Example 691], the Ki is < 1000 nM at human MR and < 500 nM at glucocorticoid receptor.
For `COc1ccc2c(c1)CSc1ccccc1/C2=C/c1cccc(NS(C)(=O)=O)c1` [Example 692], the Ki at human MR and on glucocorticoid receptor was < 500 nM throughout.
In the case of `CS(=O)(=O)Nc1cccc(C=C2c3ccc(Cl)cc3CSc3ccccc32)c1` [Example 693], the inhibitory constant (Ki) at human MR and on glucocorticoid receptor was < 500 nM in each case.
With `COc1ccc2c(c1)SCc1ccccc1/C2=C\c1cccc(NS(C)(=O)=O)c1` [Example 694], the Ki on human MR and at glucocorticoid receptor was < 500 nM each time.
As to `Cc1cccc2c1SCc1ccccc1C2=Cc1cccc(NS(C)(=O)=O)c1` [Example 695], the Ki at human MR and on glucocorticoid receptor was < 500 nM in each case.
For `COc1cccc2c1/C(=C\c1cccc(NS(C)(=O)=O)c1)c1ccccc1SC2` [Example 696], the Ki on human MR and on glucocorticoid receptor was < 500 nM throughout.
For `O=S(=O)(Nc1cccc(/C=C2\c3ccccc3CSc3ccccc32)c1)C1CC1` [Example 698], the Ki at human MR is < 1000 nM; at glucocorticoid receptor, < 500 nM.
Take `OCc1cccc(/C=C2\c3ccccc3CSc3ccccc32)c1` [Example 699]: the Ki at human MR and on glucocorticoid receptor was < 500 nM in each case.
Turning to `O=S(=O)(Cc1cccc(/C=C2\c3ccccc3CSc3ccccc32)c1)c1cccc(C(F)(F)F)c1` [Example 700], the Ki at human MR and on glucocorticoid receptor was < 500 nM in each case.
Regarding `C(=C1c2ccccc2CSc2ccccc21)c1ccccc1` [Example 701], the Ki on human MR and at glucocorticoid receptor was < 500 nM throughout.
With `CS(=O)(=O)Nc1cccc(C=C2c3ccc(Cl)cc3CSc3cc(Cl)ccc32)c1` [Example 702], the Ki at human MR was < 500 nM; on glucocorticoid receptor, < 10000 nM.
With `COc1cccc2c1/C(=C/c1cccc(NS(C)(=O)=O)c1)c1ccccc1OC2` [Example 703], the Ki on human MR and on glucocorticoid receptor was < 500 nM throughout.
For the molecule `COc1cccc2c1/C(=C\c1cccc(NS(C)(=O)=O)c1)c1ccccc1OC2` [Example 704], the Ki at human MR and at glucocorticoid receptor was < 500 nM in each case.
Turning to `COc1ccc2c(c1)COc1ccccc1/C2=C\c1cccc(NS(C)(=O)=O)c1` [Example 705], the Ki at human MR and at glucocorticoid receptor was < 500 nM in each case.
Take `COc1ccc2c(c1)OCc1ccccc1/C2=C/c1cccc(NS(C)(=O)=O)c1` [Example 706]: the Ki at human MR and at glucocorticoid receptor was < 500 nM throughout.
As to `COc1cccc2c1COc1ccccc1/C2=C\c1cccc(NS(C)(=O)=O)c1` [Example 707], the Ki on human MR and on glucocorticoid receptor was < 500 nM throughout.
As for `COc1cccc2c1COc1ccccc1/C2=C/c1cccc(NS(C)(=O)=O)c1` [Example 708], the Ki on human MR and at glucocorticoid receptor was < 500 nM each time.
Consider `O=c1[nH]c2cc(/C=C3/c4ccccc4COc4cc(F)ccc43)ccc2n1C1CC1` [Example 709], for which the Ki at human MR and on glucocorticoid receptor was < 500 nM each time.
In the case of `CC(C)Cn1c(=O)[nH]c2cc(/C=C3\c4ccccc4COc4cc(F)ccc43)ccc21` [Example 710], the inhibitory constant (Ki) on human MR and on glucocorticoid receptor was < 500 nM in each case.
In the case of `CC(C)Cn1c(=O)[nH]c2cc(/C=C3/c4ccccc4COc4cc(F)ccc43)ccc21` [Example 711], the Ki on human MR is < 500 nM; at glucocorticoid receptor, < 1000 nM.
Consider `O=c1[nH]c2cc(/C=C3/c4ccccc4COc4cc(F)ccc43)ccc2n1CCN1CCOCC1` [Example 712], for which the Ki at human MR and on glucocorticoid receptor was < 500 nM throughout.
For `O=c1[nH]c2ccc(C=C3c4ccccc4OCc4c(F)cccc43)cc2[nH]1` [Example 713], the Ki at human MR and at glucocorticoid receptor was < 500 nM in each case.
`O=c1[nH]c2ccc(C=C3c4cc(F)ccc4COc4ccccc43)cc2[nH]1` [Example 714]: the Ki was < 500 nM at human MR and < 10000 nM on glucocorticoid receptor.
In the case of `O=c1[nH]c2ccc(C=C3c4cc(Cl)ccc4COc4ccccc43)cc2[nH]1` [Example 715], the Ki on human MR is < 500 nM; on glucocorticoid receptor, < 1000 nM.
For `O=c1[nH]c2cc(/C=C3/c4ccc(F)cc4OCc4ncsc43)ccc2n1CCN1CCOCC1` [Example 718], in that order: < 500 nM and < 10000 nM.
Turning to `O=S(=O)(CC(F)(F)F)Nc1cccc(C=C2c3ccc(Cl)cc3CSc3cc(Cl)ccc32)c1` [Example 721], the Ki at human MR and at glucocorticoid receptor was < 500 nM in each case.
In the case of `CS(=O)(=O)NCc1cccc(/C=C2\c3ccccc3CSc3ccccc32)c1` [Example 722], the Ki at human MR and on glucocorticoid receptor was < 500 nM throughout.
As to `CS(=O)(=O)Nc1cccc(/C=C2\c3ccc(F)cc3COc3ccccc32)c1` [Example 723], the Ki at human MR and at glucocorticoid receptor was < 500 nM in each case.
`CS(=O)(=O)Nc1cccc(/C=C2/c3ccc(F)cc3COc3ccccc32)c1` [Example 724]: the Ki at human MR and on glucocorticoid receptor was < 500 nM in each case.
